Reference: publication PMC3906536, “The cyclic AMP phosphodiesterase RegA critically regulates encystation in social and pathogenic amoebas^” (Cellular Signalling, 2014)

Biological target: T1, Acas RegA (cAMP phosphodiesterase RegA) (Acanthamoeba castellanii, UniProt L7WMY9)
T1 construct: 621 aa protein from full cDNA, N-terminal hexahis-tag, expressed in E. coli
Assay: inhibition of 3H-cAMP hydrolysis by purified RegA
Assay type: biochemical

T1 sequence (L7WMY9 entry or part of it): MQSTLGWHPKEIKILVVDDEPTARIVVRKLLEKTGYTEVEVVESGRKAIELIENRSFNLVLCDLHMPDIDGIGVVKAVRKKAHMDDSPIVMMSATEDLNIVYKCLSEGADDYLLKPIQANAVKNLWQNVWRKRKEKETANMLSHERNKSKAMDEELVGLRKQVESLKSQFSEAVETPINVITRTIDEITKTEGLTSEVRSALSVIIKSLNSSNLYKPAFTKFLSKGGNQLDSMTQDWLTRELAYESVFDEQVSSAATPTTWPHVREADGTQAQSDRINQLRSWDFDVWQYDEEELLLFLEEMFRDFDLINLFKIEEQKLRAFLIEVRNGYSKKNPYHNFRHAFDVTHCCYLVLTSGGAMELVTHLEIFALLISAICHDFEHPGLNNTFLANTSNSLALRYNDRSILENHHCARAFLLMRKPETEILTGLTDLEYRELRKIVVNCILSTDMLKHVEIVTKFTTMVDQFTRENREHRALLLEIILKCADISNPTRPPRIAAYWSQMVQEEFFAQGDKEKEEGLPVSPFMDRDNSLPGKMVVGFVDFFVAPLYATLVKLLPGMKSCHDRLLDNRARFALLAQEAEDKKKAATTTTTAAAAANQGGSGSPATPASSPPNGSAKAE

IC50 [µM]	Structure (SMILES)
400	Clc1cccc(Nc2nnc(-c3ccccc3)c3ccccc23)c1 [MY-5445]
12	OCCN(CCO)c1nc(N2CCCCC2)c2nc(N(CCO)CCO)nc(N3CCCCC3)c2n1 [dipyridamole]
30	COc1cc2c(cc1OC)-c1c/c(=N\c3c(C)cc(C)cc3C)n(C)c(=O)n1CC2 [trequinsin]
